Assay results published in patent publication EP3492066A1, “COSMETIC PREPARATIONS HAVING A CALMING EFFECT” (Beiersdorf AG, priority 2010, dated 2012).

What was measured:
Probandinnen [1] = assay: Olfactometer test with psychophysiological measurement (blood volume pulse amplitude, heart rate) versus placebo; assay type: in vivo, Menschen; settings: for Blutvolumenpuls Amplitude (Abbildung 1): 0,025% Tetrahydro-6-pentyl-2H-pyran-2-one (N=9), 0,075% 2,6-Dimethyl-7-octen-2-ol (N=10), gegenüber Placebokontrolle Propylenglycol (N=10); for Blutvolumenpuls Amplitude: gegenüber der Placebokontrolle (Propylenglykol), 5 min fragrance by olfactometer; for Änderung der Herzrate: normalised
Excerpt: Es wurde in weiteren Tests die beruhigende Wirkung der Duftstoffe 6-Methyl-5-Hepten-2-one, Octan-2-one, Heptan-2-one, Nonan-2-one, 5-hexyldihydro-5-methyl-2(3H)-furanone, Tetrahydro-6-pentyl-2H-pyran-2-one, Octanal und 2,6-Dimethyl-7-octen-2-ol auf den Menschen untersucht. Dazu wurde ein Testdesign gewählt, bei dem mit Hilfe eines Olfaktometers (Burghart) kosmetisch einsetzbare und kommerziell erhältliche Duftstoffe an die Nase des Probanden gebracht wurden. Die Duftstoffe wurden in Propylenglykol (Caelo) gelöst. Als Placebokontrolle wurde entsprechend ebenfalls Propylenglykol eingesetzt
Die Probandinnen wurden in einer bequemen, leicht nach hinten gelehnten Haltung auf einem Sessel platziert. Das Ende des Olfaktometerschlauches wurde im Abstand von etwa 10 cm vor der Nase des Probanden platziert und mit Hilfe eines Stativs fixiert. Der Versuchsaufbau (Nexus, Olfaktometer) wurde von den Probandinnen mit Hilfe einer spanischen Wand abgeschirmt, um die Teilnehmerinnen nicht durch das Messgeschehen abzulenken. Die Messungen fanden in einem hellen, gut gelüfteten, auf 21°C temperierten Raum statt.
An den Untersuchungen nahmen Probandinnen im Alter von 20 bis 40 Jahren teil. Das Durchschnittsalter betrug 31 Jahre. Die Probandinnen besaßen einen BMI zwischen 19 und 25. Die Probandinnen wurden gebeten, einen Tag vor Studienbeginn auf Parfum und Body Lotion zu verzichten. Am Messtag selbst durften die Teilnehmerinnen weder Parfum, noch parfümierte Deoprodukte, Body Lotions, Gesichtscreme, Handcreme und Haarspray benutzen. Sie mussten auf Kaffee, Schwarztee, Fruchtsäfte und Zigaretten verzichten und durften 30 min vor Testbeginn nichts mehr essen und ausschließlich Wasser trinken.
Die Einstellungen am Olfaktometer sahen einen Luftstrom von 4 L/min vor. Die externe Druckluft betrug 2 bar. Die Probandinnen wurden mit den entsprechenden Messelektroden bestückt und akklimatisierten zunächst für 1 min. Diese Zeit wurde gleichzeitig genutzt, um sicherzustellen, dass sich die Elektroden zur Bestimmung psychophysiologischer Parameter in einem schwankungsfreien und messbereiten Zustand befinden. Alle Probandinnen erhielten im Anschluss für 5 min Kontrollluft ohne Duft. Während dieser Zeit sollten alle Probandinnen einen emotional neutralen Zustand erreichen. Anschließend erhielten die Probandinnen für 5 min einen Duftstoff, der so niedrig konzentriert war, dass er nicht unangenehm oder gar stechend empfunden wurde. Alle Duftstoffe wurden in Propylenglykol gelöst. Als Placebokontrolle diente ebenfalls Propylenglykol. Während der gesamten 10 min wurden die psychophysiologischen Messparameter dermale Aktivität, Herzrate und Blutvolumenpuls mit Hilfe des Messgeräts NeXus und der Software Biotrace (Mind Media B.V.) erfasst. Die Differenz zwischen maximalem und minimalem Blutvolumen innerhalb eines Herzzyklus nennt man Blutvolumenpuls Amplitude. Dieser Wert sinkt bei psychischer Belastung ab. Umgekehrt kann ein Anstieg als Entspannungsreaktion interpretiert werden.
Um eine gute Vergleichbarkeit der Messdaten der verschiedenen Testgruppen gewährleisten zu können, wurden die Rohdaten der Messung normiert. Dafür wurde der Mittelwert der BVP Amplitude 1 min vor Duftapplikation von allen anderen Messwerten abgezogen. Die Summe der Differenzen ergibt die Änderung der BVP Amplitude in µV.

Probandinnen [2] = assay: Short stress test (unpleasant pictures, loud drum rhythm) with Self-Assessment Manikin (SAM) rating of nervousness; assay type: in vivo, Menschen; settings: im Mittel, compared with Placebo-behandelte Probandinnen
Method: Zur Ergänzung der zuvor ermittelten Daten wurde mit den Probandinnen ein kurzer Stresstest durchgeführt, bei dem sie nach einer Anfangsentspannung für 1 min einer schnellen Folge von unangenehmen Bildern (Spinnen, Feuer, etc.) auf einem Fernsehbildschirm ausgesetzt wurden. Die visuellen Reize wurden von einem lauten Trommelrhythmus begleitet. Vor und nach dem Stresstest wurden die Probandinnen gebeten, mit Hilfe eines Self-Assessment Manikins (SAM), [formula] ihre eigene Nervosität zu bewerten.
Beispielhaft sind in Abbildung 2 die Werte des SAM-Fragebogens für Nervosität für 2,6-Dimethyl-7-octen-2-ol und Tetrahydro-6-pentyl-2H-pyran-2-one dargestellt. Abbildung 2 zeigt die Angaben der Probandinnen zu ihrer Nervosität vor und nach dem Stresstest als Differenz (nachher minus vorher).

| SMILES | Blutvolumenpuls Amplitude (Probandinnen [1]) | Stress-vermittelte Änderung der Nervosität (SAM) (Probandinnen [2]) | also measured |
| --- | --- | --- | --- |
| C=CC(C)CCCC(C)(C)O (stereo not shown) [2,6-Dimethyl-7-octen-2-ol] | Anstieg | geringeren Stress-vermittelten Änderung der Nervosität | Blutvolumenpuls Amplitude (Abbildung 1) (Probandinnen [1]): Anstieg |
| CCCCCCC1(C)CCC(=O)O1 (stereo not shown) [5-hexyldihydro-5-methyl-2(3H)-furanone] | Beruhigungs- bzw. Entspannungsreaktion | geringeren Stress-vermittelten Änderung der Nervosität | – |
| CC(=O)CCC=C(C)C [6-Methyl-5-Hepten-2-one] | Beruhigungs- bzw. Entspannungsreaktion | geringeren Stress-vermittelten Änderung der Nervosität | – |
| CCCCCC(C)=O [Heptan-2-one] | Beruhigungs- bzw. Entspannungsreaktion | geringeren Stress-vermittelten Änderung der Nervosität | – |
| CCCCCCCC(C)=O [Nonan-2-one] | Beruhigungs- bzw. Entspannungsreaktion | geringeren Stress-vermittelten Änderung der Nervosität | – |
| CCCCCCC(C)=O [Octan-2-one] | Beruhigungs- bzw. Entspannungsreaktion | geringeren Stress-vermittelten Änderung der Nervosität | – |
| CCCCCCCC=O [Octanal] | Beruhigungs- bzw. Entspannungsreaktion | geringeren Stress-vermittelten Änderung der Nervosität | – |
| CCCCCC1CCCC(=O)O1 (stereo not shown) [Tetrahydro-6-pentyl-2H-pyran-2-one] | Anstieg | geringeren Stress-vermittelten Änderung der Nervosität | Blutvolumenpuls Amplitude (Abbildung 1) (Probandinnen [1]): Anstieg; Änderung der Herzrate (Probandinnen [1]; Duftphase, Zeit 300 s, 0,025% in Propylenglykol): -2,51 bpm; Änderung der Herzrate (Probandinnen [1]; Duftphase, Zeit 315 s, 0,025% in Propylenglykol): -3,27 bpm; Änderung der Herzrate (Probandinnen [1]; Duftphase, Zeit 330 s, 0,025% in Propylenglykol): -2,71 bpm; Änderung der Herzrate (Probandinnen [1]; Duftphase, Zeit 435 s, 0,025% in Propylenglykol): -1,94 bpm; Änderung der Herzrate (Probandinnen [1]; Duftphase, Zeit 540 s, 0,025% in Propylenglykol): -2,91 bpm; Änderung der Herzrate (Probandinnen [1]; Duftphase, Zeit 585 s, 0,025% in Propylenglykol): -2,44 bpm; Änderung der Herzrate (Probandinnen [1]; Kontrollluft (before fragrance application), Zeit 30 s, 0,025% group): -1,26 bpm; Änderung der Herzrate (Probandinnen [1]; Kontrollluft (before fragrance application), Zeit 90 s, 0,025% group): -1,26 bpm; Änderung der Herzrate (Probandinnen [1]; Kontrollluft (before fragrance application), Zeit 135 s, 0,025% group): -1,65 bpm; Änderung der Herzrate (Probandinnen [1]; Kontrollluft (before fragrance application), Zeit 180 s, 0,025% group): -2,16 bpm; Änderung der Herzrate (Probandinnen [1]; Kontrollluft (before fragrance application), Zeit 225 s, 0,025% group): -0,63 bpm; Änderung der Herzrate (Probandinnen [1]; Kontrollluft (before fragrance application), Zeit 285 s, 0,025% group): -0,02 bpm; Herzrate (Probandinnen [1]; result in words, im Vergleich zur Placebokontrolle, after fragrance application): Senkung der Herzrate |
